Values quoted from earlier work, collected in patent publication US20230312703A1, “Method of Treating Psoriasis with IL-23 Specific Antibody” (Janssen Biotech, Inc., priority 2022, published 2023).
“And” between values parts separate entries of the source, which are not always exact repeats. Equal entries are not always repeated. Where two headings read alike, the source gives them in different places.

Experiments:
[1] = test system: participants with psoriasis; details: Week 16; ESTEEM1
[2] = test system: participants with psoriasis; details: ADVANCE (apremilast arm of cross-study comparison)
[3] = test system: participants with psoriasis; details: Week 16; ESTEEM2
[4] = test system: participants with psoriasis; details: Week 16; VOYAGE 2
[5] = test system: participants with psoriasis; details: Week 16, VOYAGE 1 & 2
[6] = test system: participants with psoriasis
[7] = test system: participants with psoriasis; remark: listed apart in the source

Molecule	Proportion of participants who achieve a PASI 90 response [1] [%]	Proportion of participants who achieve a ss-IGA score of 0 or 1 with ≥2-grade improvement from baseline among randomized participants with scalp psoriasis and an ss-IGA score ≥2 at baseline [1] [%]	Proportion of participants who achieve an Static Physician Global Assessment (sPGA) score of 0 or 1 with at least ≥2 grade improvement from baseline at Week 16 (BSA 2-15%) [2] [%]	Proportion of participants who achieve a PASI 90 response [3] [%]	Proportion of participants who achieve a PASI 90 response [4] [% vs 2.4%]	Proportion of participants who achieve an IGA score of 0 or 1 with ≥2 grade improvement from baseline (BSA 10-15%) [5] [% vs 9.1%]	Proportion of participants who achieve an Static Physician Global Assessment (sPGA) score of 0 or 1 with at least ≥2 grade improvement from baseline at Week 16 (BSA 2-15%) ([6]; DISCOVER 1 & 2 (guselkumab arm of cross-study comparison)) [%]	Proportion of participants who achieve an IGA score of 0 or 1 with ≥2 grade improvement from baseline (BSA 3-15%) ([6]; Week 16, DISCOVER 1 & 2, BSA 3-15%) [% vs 12.2%]	Proportion of participants who achieve an IGA score of clear (0) at Week 16 (BSA >=10%) ([7]; VOYAGE 1, BSA >=10%) [% vs 1.1%]	Change in PSSD Symptom score from baseline: Mean (SD) ([7]; Week 16, VOYAGE 1)	Percent improvement in NAPSI score from baseline: Mean (SD) ([7]; Week 16, VOYAGE 1)	Proportion of participants who achieve a PASI 90 response ([7]; Week 16, VOYAGE 1)	Proportion of participants who achieve a PASI 100 response ([7]; Week 16, VOYAGE 1) [% vs 0.6%]	Proportion of participants who achieve a ss-IGA score of 0 or 1 with ≥2-grade improvement from baseline among randomized participants with scalp psoriasis and an ss-IGA score ≥2 at baseline ([7]; Week 16, VOYAGE 1)	Proportion of participants with ≥4-point reduction (improvement) in PSSD Itch score from baseline among participants with a PSSD Itch score ≥4 at baseline ([7]; Week 16, VOYAGE 1) [% vs 5.7%]
CCOc1cc([C@@H](CS(C)(=O)=O)N2C(=O)c3cccc(NC(C)=O)c3C2=O)ccc1OC [Apremilast]	9.8	46.5	21.6	8.8	–	–	–	–	–	–	–	–	–	–	–
Guselkumab: fully human IgG1 lambda monoclonal antibody that binds the p19 subunit of human IL-23; heavy chain SEQ ID NO: 9, light chain SEQ ID NO: 10	–	–	–	–	70.0	82.9	55.7	55.7	47.7	−41.9 (24.61) vs	34.37 (42.448) vs Percent	73.3% vs 2.9% and 73.3%	37.4	83.4% vs 14.5% and 83.4%	75.0
